Results from patent publication US5411976A, “New thiazolidine derivatives, process for preparing same and anti-amnestic composition containing same” (Kabushiki Kaisha Yakult Nonsha, priority 1987, dated 1995).
Non-standard residues stand in square brackets, D forms with d. Residues, ends and D or L forms follow the SMILES beside them. *: point of attachment. Thz = O=C(O)[C@@H]1CSCN1; Cbz = O=C(OCc1ccccc1)*

What was measured:
[1] = test system: SCOP-induced amnestic rat; experiment: Step-down type passive avoidance test in scopolamine-induced amnestic rats; assay type: in vivo, rat (Wister strain); details: for Acquisition trial: Step-down latency / Acquisition trial: Number of step-down / Acquisition trial: Total time for the test: scopolamine after learning; for Retention trial: Step-down latency after 24 hours / Retention trial: Step-down latency after 48 hours: scopolamine 3.0 mg/kg i.p. after learning
Method: (2) A step-down type passive avoidance test
This test was carried out by using the undermentioned apparatus (A) and test animal (B) according to the undermentioned testing method (C).
(A) Test chamber for passive avoidance response of rats
A test chamber of 200(w)×200(1) mm in area was made of transparent acrylic resin plates for observation of the inside and was provided on one side thereof with an electrically insulated platform of 150(w)×200(1)×40(h) in size and on the bottom with a grid floor made of stainless steel which was equipped with a foot-shock generator/scrumbler (HASG-101/S, Medical Agent, Inc.) capable of sending electric current to the grid floor for giving a test animal electric foot shock.
5-Weeks-old male rats of Wister strain weighing 100-145 g (Japan Clea Co., Ltd.) were used as test animals.
The passive avoidance test consists of two steps; an acquisition trial and a retention trial. […] As control, only saline was administered intraperitoneally to a group of the rats. In the acquisition trial, the rat was placed on the platform in the test chamber and, when the rat stepped down on the floor, the electric current of 4 mA was immediately sent to the grid continuously until the rat went up on the platform. At the time the rat having gone up on the platform stayed there for more than 20 seconds, the rat was regarded to have learned the situation and taken out of the test chamber. Repeating this test with another rat under the same condition, the rats learned the situation were collected as passing the test for the acquisition trial. A total time of measurement in the acquisition trial was limited to 300 seconds as maximum, and the time elapsing until the rat stepped down to the grid floor (step-down latency, SDL), the total time elapsing until the rat learned the situation and the times of step-down were measured. […] Immediately after the acquisition trial, scopolamine hydrobromide (SCOP) dissolved in saline was administered intraperitoneally in a dose of 3.0 mg/kg of body weight to the rat to prepare a SCOP-induced amnestic rat. As control, only saline was administered intraperitoneally to a group of the rats. The retention trial was carried out by putting the rat on the platform of the test chamber after the lapse of 24 and 48 hours from the acquisition trial, and the time elapsing until the rat went down to the floor (SDL) was measured. A statistical treatment of the data obtained was made according to the Student's t-test.

prolyl endopeptidase = target: T1, prolyl endopeptidase (Homo sapiens, UniProt P48147); experiment: Inhibitory activity to prolyl endopeptidase (IC50); assay type: biochemical
T1 sequence (P48147 1-710): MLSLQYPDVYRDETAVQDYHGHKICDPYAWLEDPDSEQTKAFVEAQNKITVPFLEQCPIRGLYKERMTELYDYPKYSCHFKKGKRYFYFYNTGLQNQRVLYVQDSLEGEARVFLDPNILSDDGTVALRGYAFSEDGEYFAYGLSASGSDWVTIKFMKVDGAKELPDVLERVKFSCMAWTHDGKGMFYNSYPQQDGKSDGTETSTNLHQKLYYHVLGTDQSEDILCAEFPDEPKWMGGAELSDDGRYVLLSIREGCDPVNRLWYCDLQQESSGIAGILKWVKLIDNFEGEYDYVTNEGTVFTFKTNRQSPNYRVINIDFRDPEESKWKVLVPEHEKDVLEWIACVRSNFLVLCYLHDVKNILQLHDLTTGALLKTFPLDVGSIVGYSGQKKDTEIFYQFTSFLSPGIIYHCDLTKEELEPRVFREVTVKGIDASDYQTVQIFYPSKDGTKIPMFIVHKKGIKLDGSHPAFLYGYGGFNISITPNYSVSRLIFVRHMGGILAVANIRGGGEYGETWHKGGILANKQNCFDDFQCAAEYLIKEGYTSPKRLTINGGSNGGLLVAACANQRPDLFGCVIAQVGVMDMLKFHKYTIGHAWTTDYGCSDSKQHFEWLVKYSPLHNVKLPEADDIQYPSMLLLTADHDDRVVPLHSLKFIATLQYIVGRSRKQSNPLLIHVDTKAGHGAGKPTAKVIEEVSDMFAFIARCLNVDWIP

[2] = 2.2 mg/kg i.p. one hour before acquisition trial

| SMILES | Acquisition trial: Step-down latency [1, 2] [s] | Retention trial: Step-down latency after 24 hours ([1]; 2.2 mg/kg i.p.) [s] | Retention trial: Step-down latency after 48 hours ([1]; 2.2 mg/kg i.p.) [s] | Acquisition trial: Number of step-down ([1]; 2.2 mg/kg i.p.) [times] | Acquisition trial: Total time for the test ([1]; 2.2 mg/kg i.p.) [s] | Retention trial: Step-down latency after 24 hours ([1]; 11.0 mg/kg i.p.) [s] | Retention trial: Step-down latency after 48 hours ([1]; 11.0 mg/kg i.p.) [s] | Acquisition trial: Number of step-down ([1]; 11.0 mg/kg i.p.) [times] | Acquisition trial: Step-down latency ([1]; 11.0 mg/kg i.p.) [s] | Acquisition trial: Total time for the test ([1]; 11.0 mg/kg i.p.) [s] | Inhibitory activity in vitro (in words) (prolyl endopeptidase) |
| --- | --- | --- | --- | --- | --- | --- | --- | --- | --- | --- | --- |
| O=C[C@@H]1CSCN1C(=O)[C@@H]1CSCN1C(=O)OCc1ccccc1 [Example 4, N-benzyloxycarbonyl-L-thioprolyl-L-thioprolinal] (Cbz-[Thz]-[Thz]-aldehyde) | 7.6 | 170.9 | 176.5 | 2.0 | 52.1 | 245.7 | 177.0 | 2.2 | 8.9 | 57.1 |  |
| O=C([C@@H]1CSCN1C(=O)OCc1ccccc1)N1CSC[C@H]1CO [Example 3, N-benzyloxycarbonyl-L-thioprolyl-L-thioprolinol] | 9.8 | 238.2 | 174.0 | 2.4 | 67.5 |  |  |  |  |  | not effective in vitro |
